# Values quoted from earlier work as cited in paper PMC8025584, “Identification of multipotent drugs for COVID-19 therapeutics with the evaluation of their SARS-CoV2 inhibitory activity” (Computational and Structural Biotechnology Journal, 2021).
# Structures can show the parent of a compound that is named as a salt. Where two headings read alike, the source gives them in different places.
# System: differentially expressed human proteins in COVID-19
# Conditions: ref DGIdb, cited from earlier work
# [1] = gene CACNA1A, drug-gene interaction listed in DGIdb export
# [2] = gene CCR1, drug-gene interaction listed in DGIdb export
# [3] = gene HCK, drug-gene interaction listed in DGIdb export
smiles,measurement,setting,value
COc1ccc(-c2ccc3cc(C(=O)O)ccc3c2)cc1C12CC3CC(CC(C3)C1)C2,interaction_types,"gene JUN, drug-gene interaction listed in DGIdb export",antagonist
same,interaction_types,gene RXRB,agonist
NC(=O)[C@@H](CCC(F)(F)F)N(Cc1ccc(-c2ncon2)cc1F)S(=O)(=O)c1ccc(Cl)cc1,interaction_types,gene PSENEN,inhibitor
C[C@H](NC(=O)C(=O)Nc1ccccc1C(C)(C)C)C(=O)N[C@@H](CC(=O)O)C(=O)COc1c(F)c(F)cc(F)c1F,interaction_types,gene CASP4,inhibitor
same,interaction_types,gene CASP5,inhibitor
NS(=O)(=O)c1ccc(S(=O)(=O)Nc2cccc3c(Cl)c[nH]c23)cc1,interaction_types,gene CA1,inhibitor
CNC(=O)[C@@H](NC(=O)[C@H](CC(C)C)[C@H](O)C(=O)NO)C(C)(C)C,interaction_types,gene MMP8,inhibitor
CC(C)[C@H](O)C(=O)N[C@@H](C)C(=O)N[C@@H]1C(=O)N(C)CCc2ccccc21,interaction_types,gene PSENEN,inhibitor
C1CCC2(C1)C1CN(CC3CC3)CC2CN(CC2CC2)C1,interaction_types,gene KCNH7,blocker
COc1ccc(CCN(C)CCCC(C#N)(c2ccc(OC)c(OC)c2)C(C)C)cc1OC (stereo not shown),interaction_types,[1],inhibitor
CC(=O)Nc1nnc(S(N)(=O)=O)s1 [ACETAZOLAMIDE],interaction_types,gene CA1,inhibitor
COc1cc(C)c(/C=C/C(C)=C/C=C/C(C)=C/C(=O)O)c(C)c1C [ACITRETIN],interaction_types,gene RXRB,agonist
Nc1ncnc2c1ncn2[C@@H]1O[C@H](COP(=O)(O)OP(=O)(O)O)[C@@H](O)[C@H]1O [ADENOSINE DIPHOSPHATE],interaction_types,gene P2RY13,agonist
Nc1ncnc2c1ncn2[C@@H]1O[C@H](COP(=O)(O)O)[C@@H](O)[C@H]1O [ADENOSINE PHOSPHATE],interaction_types,gene PRKAB1,activator
Nc1ncnc2c1ncn2[C@@H]1O[C@H](COP(=O)(O)OP(=O)(O)OP(=O)(O)O)[C@@H](O)[C@H]1O [ADENOSINE TRIPHOSPHATE],interaction_types,gene P2RY13,agonist
"Nc1ncnc2c1ncn2[C@@H]1O[C@H](CO)[C@@H](O)[C@H]1O [ADENOSINE, reference compound]",interaction_types,gene PI4K2B,inhibitor
"CC1=C(/C=C/C(C)=C\C=C\C(C)=C\C(=O)O)C(C)(C)CCC1 [ALITRETINOIN, reference compound]",interaction_types,gene RXRB,agonist
CCCCc1c(-c2ccc(OC)cc2)[nH]c2nccnc12 [ALOISINE],interaction_types,gene PTK2B,inhibitor
"CCC1(c2ccc(N)cc2)CCC(=O)NC1=O (stereo not shown) [AMINOGLUTETHIMIDE, reference compound]",interaction_types,gene CYP19A1,inhibitor
"CC(C)c1ccc2oc3nc(N)c(C(=O)O)cc3c(=O)c2c1 [AMLEXANOX, reference compound]",interaction_types,gene S100A12,antagonist
same,interaction_types,"gene S100A13, drug-gene interaction listed in DGIdb export",antagonist
CCOC(=O)C1=C(COCCN)NC(C)=C(C(=O)OC)C1c1ccccc1Cl (stereo not shown) [AMLODIPINE],interaction_types,gene CA1,inhibitor
CC(C)(C#N)c1cc(Cn2cncn2)cc(C(C)(C)C#N)c1 [ANASTROZOLE],interaction_types,gene CYP19A1,inhibitor
Cc1c(CN2CCN(C(=O)[C@H](C)O)CC2)sc2c(N3CCOCC3)nc(-c3cnc(N)nc3)nc12 [APITOLISIB],interaction_types,gene FGR,inhibitor
C[C@H]1[C@@H](O)O[C@@H]2O[C@@]3(C)CC[C@H]4[C@H](C)CC[C@@H]1[C@@]24OO3 [ARTENIMOL],interaction_types,gene PFN1,ligand
C[C@H]1CC(CN)(CC(=O)O)C[C@@H]1C [ATAGABALIN],interaction_types,[1],modulator
Nc1ccc(SC[C@@H]2CO[C@](CCc3ccc(Cl)cc3)(Cn3ccnc3)O2)cc1 [AZALANSTAT],interaction_types,gene CYP19A1,inhibitor
CNC(=O)c1cc(Cl)c(OC(C)(C)C(=O)O)cc1OC[C@@H](O)CN1CCC2(CC1)Cc1cc(Cl)ccc1O2 [AZD4818],interaction_types,[2],antagonist
CCS(=O)(=O)N1CC(CC#N)(n2cc(-c3ncnc4[nH]ccc34)cn2)C1 [BARICITINIB],interaction_types,"gene GAK, drug-gene interaction listed in DGIdb export",inhibitor
same,interaction_types,gene PTK2B,inhibitor
O=S(=O)(N[C@H](CO)C(C(F)(F)F)C(F)(F)F)c1ccc(Cl)s1 [BEGACESTAT],interaction_types,gene PSENEN,inhibitor
NS(=O)(=O)c1cc2c(cc1C(F)(F)F)NC(Cc1ccccc1)NS2(=O)=O (stereo not shown) [BENDROFLUMETHIAZIDE],interaction_types,gene CA1,inhibitor
NS(=O)(=O)c1nnc(NS(=O)(=O)c2ccccc2)s1 [BENZOLAMIDE],interaction_types,gene CA1,inhibitor
"NS(=O)(=O)c1cc2c(cc1Cl)N=C(CSCc1ccccc1)NS2(=O)=O [BENZTHIAZIDE, reference compound]",interaction_types,gene CA1,inhibitor
CC(C)COCC(CN(Cc1ccccc1)c1ccccc1)N1CCCC1 (stereo not shown) [BEPRIDIL HYDROCHLORIDE],interaction_types,[1],blocker
CC(C)COCC(CN(Cc1ccccc1)c1ccccc1)N1CCCC1 (stereo not shown) [BEPRIDIL],interaction_types,[1],inhibitor
"C=C(c1ccc(C(=O)O)cc1)c1cc2c(cc1C)C(C)(C)CCC2(C)C [BEXAROTENE, reference compound]",interaction_types,gene RXRB,activator¦agonist
CC(C)(Oc1ccc(CCNC(=O)c2ccc(Cl)cc2)cc1)C(=O)O [BEZAFIBRATE],interaction_types,gene RXRB,agonist
O=C(O)Cc1cccc(-c2cc(CCCCCCc3ccc(O[C@H]4O[C@H](CO)[C@@H](O)[C@H](O)[C@@H]4O)c(-c4cccc(CC(=O)O)c4)c3)ccc2O[C@H]2O[C@H](CO)[C@@H](O)[C@H](O)[C@@H]2O)c1 [BIMOSIAMOSE],interaction_types,gene SELL,inhibitor
C=CCC1=C(C)C(OC(=O)[C@@H]2[C@@H](C=C(C)C)C2(C)C)CC1=O (stereo partly shown) [BIOALLETHRIN],interaction_types,[1],blocker
CC(C)[C@@H](NC(=O)NCC(C)(C)O)C(=O)N1CC[C@](O)(c2ccc(Cl)cc2)C(C)(C)C1 [BMS-817399],interaction_types,[2],antagonist
COc1cc(Nc2c(C#N)cnc3cc(OCCCN4CCN(C)CC4)c(OC)cc23)c(Cl)cc1Cl [BOSUTINIB],interaction_types,[3],inhibitor
CCN[C@H]1CN(CCCOC)S(=O)(=O)c2sc(S(N)(=O)=O)cc21 [BRINZOLAMIDE],interaction_types,gene CA1,inhibitor
"CO[C@H]1C(=O)[C@]2(C)[C@@H](OC)C[C@H]3OC[C@@]3(OC(C)=O)[C@H]2[C@H](OC(=O)c2ccccc2)[C@]2(O)C[C@H](OC(=O)[C@H](O)[C@@H](NC(=O)OC(C)(C)C)c3ccccc3)C(C)=C1C2(C)C [CABAZITAXEL, reference compound]",interaction_types,gene TUBA4A,inhibitor¦binder
"COc1ccccc1OCCNCC(O)COc1cccc2[nH]c3ccccc3c12 (stereo not shown) [CARVEDILOL, reference compound]",interaction_types,gene KCNJ2,inhibitor
COc1cc(N2CCN(C(=O)Cn3nc(-c4ncc[nH]4)c4cccnc43)CC2)ccc1Cl [CCX354],interaction_types,[2],antagonist
COc1ccc(S(=O)(=O)N(Cc2cccnc2)[C@@H](C(=O)NO)C(C)C)cc1 [CGS-27023A],interaction_types,gene MMP8,inhibitor
CCN(CC)CCCC(C)Nc1ccnc2cc(Cl)ccc12 (stereo not shown) [CHLOROQUINE],interaction_types,"gene TNF, drug-gene interaction listed in DGIdb export",inhibitor
NS(=O)(=O)c1cc2c(cc1Cl)N=CNS2(=O)=O [CHLOROTHIAZIDE],interaction_types,gene CA1,inhibitor
"NS(=O)(=O)c1cc(C2(O)NC(=O)c3ccccc32)ccc1Cl (stereo not shown) [CHLORTHALIDONE, reference compound]",interaction_types,gene CA1,inhibitor
CC(C)CCC[C@@H](C)[C@H]1CC[C@H]2[C@@H]3CC=C4C[C@@H](O)CC[C@]4(C)[C@H]3CC[C@]12C [CHOLESTEROL],interaction_types,gene CLEC4E,ligand
O=c1cc(-c2ccccc2)oc2cc(O)cc(O)c12 [CHRYSIN],interaction_types,gene CYP1A1,inhibitor
O=P(O)(O)C(Cl)(Cl)P(=O)(O)O [CLODRONIC ACID],interaction_types,gene SLC25A4,inhibitor
COc1cc2c(c(OC)c1OC)-c1ccc(OC)c(=O)cc1[C@@H](NC(C)=O)CC2 [COLCHICINE],interaction_types,gene TUBA4A,inhibitor
COc1cc([C@H]2C(C#N)=C(N)Oc3c2ccc(N)c3N)cc(Br)c1OC [CROLIBULIN],interaction_types,gene TUBA4A,inhibitor
"NS(=O)(=O)c1cc2c(cc1Cl)NC(C1CC3C=CC1C3)NS2(=O)=O (stereo not shown) [CYCLOTHIAZIDE, reference compound]",interaction_types,gene CA1,inhibitor
"CSCCNc1nc(SCCC(F)(F)F)nc2c1ncn2[C@@H]1O[C@H](COP(=O)(O)OP(=O)(O)C(Cl)(Cl)P(=O)(O)O)[C@@H](O)[C@H]1O [Cangrelor, reference compound]",interaction_types,gene P2RY13,antagonist
Nc1ccncc1 [DALFAMPRIDINE],interaction_types,gene KCNH7,blocker
Cc1nc(Nc2ncc(C(=O)Nc3c(C)cccc3Cl)s2)cc(N2CCN(CCO)CC2)n1 [DASATINIB],interaction_types,gene FGR,inhibitor
same,interaction_types,[3],inhibitor
CNC(=O)c1ccc(Nc2ncc(C(F)(F)F)c(NCc3nccnc3N(C)S(C)(=O)=O)n2)cc1 [DEFACTINIB],interaction_types,gene PTK2B,inhibitor
COc1ccc2c(c1)[C@]13CCCC[C@@H]1[C@H](C2)N(C)CC3 [DEXTROMETHORPHAN],interaction_types,gene CYBB,inhibitor
CC1=NS(=O)(=O)c2cc(Cl)ccc2N1 [DIAZOXIDE],interaction_types,gene CA1,inhibitor
NS(=O)(=O)c1cc(Cl)c(Cl)c(S(N)(=O)=O)c1 [DICHLORPHENAMIDE],interaction_types,gene CA1,inhibitor
"CC(=O)O[C@@]12CO[C@@H]1C[C@H](O)[C@@]1(C)C(=O)[C@H](O)C3=C(C)[C@@H](OC(=O)[C@H](O)[C@@H](NC(=O)OC(C)(C)C)c4ccccc4)C[C@@](O)([C@@H](OC(=O)c4ccccc4)[C@H]21)C3(C)C [DOCETAXEL, reference compound]",interaction_types,gene TUBA4A,inhibitor
CC/C=C\C/C=C\C/C=C\C/C=C\C/C=C\C/C=C\CCC(=O)O [DOCONEXENT],interaction_types,gene RXRB,activator
CCN[C@H]1C[C@H](C)S(=O)(=O)c2sc(S(N)(=O)=O)cc21 [DORZOLAMIDE],interaction_types,gene CA1,inhibitor
